Tests used:
iNOS = target: T1, iNOS (Homo sapiens, UniProt P35228); experiment: NOS inhibition assay (L-citrulline, fluorometric detection), iNOS; assay type: biochemical; settings: for inhibition at 1 µM: compound at 1 µM; for eNOS/iNOS selectivity: ratio of eNOS IC50 to iNOS IC50
T1 construct: purchased Enzo Life Sciences, Inc. (New York, USA)
Method: (§1) The investigated compounds were tested at 1 µM against the iNOS and 10 µM against the eNOS to determine their isoform selectivity. Because of its critical role in cardiovasculature, inhibiting the constitutive enzyme eNOS should be avoided.
(§2) Refer to Supplementary Appendix SA1 for more details.
(§3) 4.2.4. NOS inhibition assay
(§4) Recombinant human iNOS was purchased from Enzo Life Sciences, Inc. (New York, USA).
(§5) Recombinant bovine eNOS was purchased from Cayman Chemical (Ann Arbor, USA). To measure iNOS activity, 10 μL of enzyme stock solution were added to 80 μL of 2-[4-(2-hydroxyethyl) piperazin-1-yl]ethanesulfonic acid (HEPES) buffer pH = 7.4, 100 mM, containing 0.1 mM CaCl2, 1 mM D,L-dithiothreitol (DTT), 0.5 mg/mL BSA, 10 μM flavin mononucleotide (FMN), 10 μM flavin adenine dinucleotide (FAD), 30 μM tetrahydrobiopterin (BH4), 10 μg/mL calmodulin (CaM), 10 μM L-Arg. For the eNOS activity evaluation, 25 μL of the enzyme stock solution were added to 65 μL of HEPES buffer containing 2 mM CaCl2 and the same cofactors […]
(§6) μM) were added to the enzyme assay solution, followed by pre -incubation of 15 min at 37 ◦C.
(§7) Each reaction was initiated by the addition of 10 μL of NADPH 7.5 mM, carried out at 37 ◦C for 30 min, and stopped by adding 500 μL of ice -cold CH3CN. The mixture was brought to dryness under vacuum and eventually stored at – 20 ◦C, before the HPLC analysis. […]

[1] = Cell viability assay (MTT) on normal mammary epithelial cells; assay type: cell-based, human; settings: human, MCF-10A normal mammary gland epithelial cells, MCF-10A normal cells, 4 days incubation
Method: This test investigates the effects of the new compounds 3–16 on normal cell lines to determine their safety. The normal human mammary gland epithelial (MCF-10 A) cell line was used to test the viability of the tested compounds. After 4 days of incubation on MCF-10 A cells within 50 µM of each investigated compound, cell viability was determined using the MTT assay ([Gomaa et al., 2020]; [Marzouk et al., 2020]).
The normal human mammary gland epithelial (MCF-10A) cell line was used to test the viability of the tested compounds. After 4 days of incubation on MCF-10A cells within 50 µM of each investigated compound, cell viability was determined using the MTT assay ([Gomaa et al., 2020]; [Marzouk et al., 2020]). Refer to Supplementary Appendix SA1 (supp. File) for more details.
4.2. Biological evaluation
4.2.1 Cell Viability assay (MTT assay)
MTT assay was performed to investigate the effect of the synthesized compounds on mammary epithelial cells (MCF-10A). The cells were propagated in medium consisting of Ham's F-12 medium/ Dulbecco's modified Eagle's medium (DMEM) (1:1) supplemented with 10% foetal calf serum, 2 mM glutamine, insulin (10 μg/mL), hydrocortisone (500 ng/mL) and epidermal growth factor (20 ng/mL). Trypsin ethylenediamine tetra acetic acid (EDTA) was used to passage the cells after every 2-3 days. 96-well flat-bottomed cell culture plates were used to seed the cells at a density of 10^4 cells mL-1. The medium was aspirated from all the wells of culture plates after 24 h followed by the addition of synthesized compounds (in 200 μL medium to yield a final concentration of 0.1% (v/v) dimethyl sulfoxide) into individual wells of the plates. Four wells were designated to a single compound. The plates were allowed to incubate at 37°C for 96 h. Afterwards, the medium was aspirated and 3-[4,5-dimethylthiazol-2-yl]-2,5-diphenyltetrazolium bromide (MTT) (0.4 mg/mL) in medium was added to each well and subsequently incubated for 3 h. The medium was aspirated and 150 μL dimethyl sulfoxide (DMSO) was added to each well. The plates were vortexed followed by the measurement of absorbance at 540 nm on a microplate reader. The results were presented as inhibition (%) of proliferation in contrast to controls comprising 0.1%

MCF-7 cells = experiment: Antiproliferative assay, MCF-7; assay type: cell-based; settings: Homo sapiens, MCF7; MCF-7 breast cancer cell line; read-out: Antiproliferative activity IC50 ± SEM, MCF-7
Method: 4.2.2. Assay for antiproliferative effect
To explore the antiproliferative potential of compounds propidium iodide fluorescence assay was performed using different cell lines such as Panc-1 (pancreas cancer cell line), MCF-7 (breast cancer cell line), HT-29 (colon cancer cell line) and A-549 (epithelial cancer cell line), respectively. To calculate the total nuclear DNA, a fluorescent dye (propidium iodide, PI) is used which can attach to the DNA, thus offering a quick and precise technique. PI cannot pass through the cell membrane and its signal intensity can be considered as directly proportional to quantity of cellular DNA. Cells whose cell membranes are damaged or have changed permeability are counted as dead ones. The assay was performed by seeding the cells of different cell lines at a density of 3000-7500 cells/well (in200μl medium) in culture plates followed by incubation for 24h at 37 °C in humidified 5%CO2/95% air atmospheric conditions. The medium was removed; the compounds were added to the plates at 10 μM concentrations (in 0.1% DMSO) in triplicates, followed by incubation for 48h. DMSO (0.1%) was used as control. After incubation, medium was removed followed by the addition of PI (25 μl, 50μg/mL in water/medium) to each well of the plates. At - 80 °C, the plates were allowed to freeze for 24 h, followed by thawing at 25 °C. A fluorometer (Polar-Star BMG Tech) was used to record the readings at excitation and emission wavelengths of 530 and 620 nm for each well. The percentage cytotoxicity of compounds was calculated using […]
Where ATC= Absorbance of treated cells and AC= Absorbance of control. Erlotinib was used as positive control in the assay.

eNOS = target: T2, eNOS (Bos taurus, UniProt P29473); experiment: NOS inhibition assay (L-citrulline, fluorometric detection), eNOS; assay type: biochemical, bovine; settings: for Inhibition (%) eNOS / inhibition at 10 µM: compound at 10 µM
T2 construct: purchased Cayman Chemical (Ann Arbor, USA)
Method: as §1, §2, §3, §4, §5, §6, §7

Row | Structure (SMILES) | IC50 (iNOS) [nM] | inhibition at 1 µM (iNOS) [%] | eNOS/iNOS selectivity (iNOS) | viability at 4 days, 50 µM [1] [%] | IC50 (MCF-7 cells) [nM] | IC50 (eNOS) [µM] | IC50 eNOS (eNOS) | Inhibition (%) eNOS (eNOS) | inhibition at 10 µM (eNOS) [%]
1 | CCc1c2cc(Cl)ccc2n2cc(-c3ccccc3)[nH]c(=O)c12 [Compound 16, 8-Chloro-10-ethyl-3-phenylpyrazino [1,2-a]indol-1(2H)-one] | 98 ± 3 | 81 ± 3 | >510 | 91 | 28 ± 2 | > 50 | inactive | completely inactive | –
2 | CCc1c2cc(Cl)ccc2n2c(C)c(C(=O)NCc3ccccc3)[nH]c(=O)c12 [Compound 7, N-benzyl-8-chloro-10-ethyl-4-methyl-1-oxo-1,2-dihydropyrazino [1,2-a]indole-3-carboxamide] | – | 73 ± 2 | – | 88 | 30 ± 3 | – | – | moderate inhibitory action | 32 ± 2
3 | CCc1c2cc(Cl)ccc2n2cc(Cc3ccccc3)n(C)c(=O)c12 [Compound 12, 3-Benzyl-8-chloro-10-ethyl-2-methylpyrazino[1,2-a]indol-1(2H)-one] | 75 ± 2 | 87 ± 3 | >670 | 89 | 25 ± 2 | > 50 | – | completely inactive | –
4 | CCc1c2cc(Cl)ccc2n2c(C)c(C(=O)OCc3ccccc3)[nH]c(=O)c12 [Compound 5, benzyl 8-chloro-10-ethyl-4-methyl-1-oxo-1,2-dihydropyrazino [1,2-a]indole-3-carboxylate] | – | 62 ± 2 | – | 90 | 34 ± 3 | – | – | – | 49 ± 2
